Source: PubChem BioAssay AID1996
Values after ≈ are worked out from the molar mass of the structure shown.

Settings: buffer; pH 7.4; 200.0 µM

| solubility kinetic [µg/mL] | Compound |
| --- | --- |
| > 34.8 | O=C(N/N=C/c1ccccc1O)C1CCCC1 |
| 4.4 (≈ 12.8 µM) | CCCCCC(=O)Nc1ncc2c(n1)CC(c1cccs1)CC2=O (stereo unspecified) |
| > 58.7 | CC(=O)c1ccc(NC(=O)CN2C(=O)NC3(CCCc4ccccc43)C2=O)cc1 (stereo unspecified) |
| > 47.5 | O=C(CCNS(=O)(=O)c1ccc(Cl)cc1)N1CCCC1 |
| 6.7 (≈ 28.7 µM) | CCCCc1ccc(NC(=O)C(C)CC)cc1 (stereo unspecified) |
| > 31.5 | O=C1NC(=Nc2ccc(F)cc2)CS1 |
| > 38.6 | Cc1ccsc1C(=O)N1CCc2ccccc2C1 |
| > 58 | CCOC(=O)c1cnc2c(C)cccc2c1Nc1cccc(C(=O)O)c1.Cl |
| 11.1 (≈ 36.1 µM) | Fc1ccccc1-c1nc(NC2CCCC2)c2ccccc2n1 |
| 5.4 (≈ 12.7 µM) | CCN(C(=O)CSc1nc(C)nc2sc3c(c12)CCC3)C1CCS(=O)(=O)C1 (stereo unspecified) |
| > 49.3 | CSc1ccccc1NC(=O)C1CCCN(S(C)(=O)=O)C1 (stereo unspecified) |
| 2.4 (≈ 9.63 µM) | O=Cc1ccc(-n2cc(C=O)c3ccccc32)cc1 |
| 26.9 (≈ 121 µM) | Oc1ccc(-c2cnc3ccccc3n2)cc1 |
| > 49.3 | CCOC(=O)CCN1C(=O)c2ccccc2Sc2ncccc21 |
| > 65.2 | COCCCC/C(=N\OCCN)c1ccc(C(F)(F)F)cc1.O=C(O)/C=C\C(=O)O |
| > 61.3 | CC(=O)N1CCN(CC(=O)Nc2cccc(S(=O)(=O)N3CCCCC3)c2)CC1 |
| > 43.1 | O=C(NCc1cccs1)c1cnc(Cl)c(Cl)c1 |
| 9.9 (≈ 33.3 µM) | Cn1c(N)nc2nc(CCc3ccccc3)c(=O)[nH]c2c1=O |
| > 50.3 | CC1Cn2c(nc3sc4c(c3c2=O)CC(C)(C)OC4)N1CCO (stereo unspecified) |
| 40.8 (≈ 138 µM) | Cc1ccc(C(=O)NC(C)c2ccc(-n3ccnc3)cc2)o1 (stereo unspecified) |

| solubility kinetic [µg/mL] | Compound |
| --- | --- |
| > 48.1 | COc1ccccc1OCCNC(=O)C1CCN(C(C)=O)CC1 |
| > 50.4 | Cc1cc(Cl)ccc1NC(=O)CN1C(=O)NC2(CCCC2)C1=O |
| < 0.3 | O=[N+]([O-])c1ccccc1/C=C/c1ccc2ccccc2n1 |
| 14.8 (≈ 45.1 µM) | COc1ccc(CNC(=S)NC(C)CCc2ccccc2)cc1 (stereo unspecified) |
| > 54.9 | O=C(Nc1ccncc1)c1cc(S(=O)(=O)N2CCCC2)ccc1Cl |
| 1.9 (≈ 6.55 µM) | N#Cc1ccccc1NC(=O)c1cc(=O)c2ccccc2o1 |
| 1.2 (≈ 4.55 µM) | O=[N+]([O-])c1ccc(NCc2ccc(Cl)cc2)nc1 |
| < 0.4 | CC(=O)c1sc(NC(=O)c2ccc(F)cc2)nc1-c1ccccc1 |
| 27.6 (≈ 83.3 µM) | CC1CCCC(C)N1C(=O)CSc1nc2ccccc2c(=O)[nH]1 (stereo unspecified) |
| 36.5 (≈ 138 µM) | Cc1cccc(NC(=S)N2CCC(O)CC2)c1C |
| > 57.6 | Cc1c(NC(=O)CSCc2ccc(Cl)cc2Cl)cccc1C(=O)O |
| 18.3 (≈ 48.1 µM) | CC(C)c1ccc(S(=O)(=O)N2CCN(C(=O)C3=COCCO3)CC2)cc1 |
| 1.3 (≈ 4.33 µM) | O=C(/C=C/c1ccc(F)cc1)NC(=S)Nc1ccccc1 |
| > 32 | Cc1nc(-c2ccccc2)ccc1C(=O)O |
| > 41.7 | O=C(NCc1ccco1)C1Cc2cc(Cl)ccc2O1 (stereo unspecified) |
| > 38.1 | O=C(Cn1ccc([N+](=O)[O-])n1)NCC1CCCO1 (stereo unspecified) |
| 5 (≈ 16.5 µM) | N#CCOc1ccccc1/C=C/c1nc2ccccc2c(=O)[nH]1 |
| > 43.6 | CCC(Oc1ccccc1C)C(=O)N1CCCN(C)CC1 (stereo unspecified) |
| 1.1 (≈ 2.43 µM) | COc1ccc(NC(=O)C2CCC2)cc1S(=O)(=O)Nc1cc(C)ccc1Br |
| 7.8 (≈ 21.4 µM) | CCOP(=O)(OCC)C(Nc1cccc([N+](=O)[O-])c1)c1ccccc1 (stereo unspecified) |

| solubility kinetic [µg/mL] | Compound |
| --- | --- |
| > 41.9 | O=C(COC(=O)Cc1ccc(F)cc1)NC1CCCC1 |
| 45.9 (≈ 122 µM) | COc1ccc(C(=O)CN2CCN(c3cc(C)nc4ccccc34)CC2)cc1 |
| 8.7 (≈ 26 µM) | CC(C)Cc1ccc(C(=O)Nc2ccc(Cc3ccncc3)cc2)o1 |
| < 0.6 | CCOC(=O)c1cn(CC)c2c(ccc3ccccc32)c1=O |
| > 47.4 | COc1ccc(C(=O)COC(=O)c2cnc(C)cn2)c(OC)c1 |
| > 36.5 | Cn1ccsc1=NC(=O)c1cccc(C#N)c1 |
| > 43.9 | CNC(=O)c1ccccc1-c1cn(C)c2ccccc2c1=O |
| > 48.5 | CN1C(=O)C(CC(=O)O)S/C1=N\N=C\c1ccc(O)cc1O (stereo unspecified) |
| 44.6 (≈ 144 µM) | CC(=O)c1cccc(OCC(=O)N2CCCc3ccccc32)c1 |
| > 47.7 | CC(NC(=O)COC(=O)c1ccc([N+](=O)[O-])o1)c1ccccc1 (stereo unspecified) |
| 1.9 (≈ 5.23 µM) | O=C(NC1CCN(Cc2ccc(Cl)c(Cl)c2)CC1)c1ccccc1 |
| 23.4 (≈ 89.2 µM) | COc1ccc(NC(=O)c2ccc([N+](=O)[O-])o2)cc1 |
| 12.1 (≈ 40.4 µM) | CCOc1ccc(-c2nonc2NC(=O)c2ccco2)cc1 |
| 34.7 (≈ 109 µM) | Cc1cc(Cl)nc(Cl)c1C(=O)NC(=O)NCCC(C)C |
| 2.2 (≈ 7.77 µM) | CC(=O)c1cccc(NC(=O)c2ccc3c(c2)OCO3)c1 |
| < 0.2 | COc1ccc(Nc2oc(-c3ccccc3F)nc2C#N)cc1 |
| 24.6 (≈ 76.1 µM) | CCOc1ccc(NC(=S)Nc2cccc3cnccc23)cc1 |
| 3.7 (≈ 11.9 µM) | Cc1cccnc1NC(=S)Nc1ccc(Cl)c(Cl)c1 |
| > 44.3 | CC1(C)CC(NC(=S)NCc2ccco2)CC(C)(C)N1 |

| Compound | solubility kinetic [µg/mL] |
| --- | --- |
| CC(N)C(=O)OC(C)(C)Cc1ccc(Cl)cc1.Cl (stereo unspecified) | > 43.8 |
| CSc1ccc(CNC(C)C(O)c2ccccc2)cc1.Cl (stereo unspecified) | > 48.6 |
